Results: patent US20230391786A1, “cGAS INHIBITORS” (Eli Lilly and Company, priority 2022, published 2023)
Read-outs that look alike come from different tables or passages of the source.

Biological target: recombinant human cGAS (Homo sapiens (Human), UniProt Q8N884)
Experiment: In vitro inhibition assay of cGAS activity (cGAMP production, RapidFire mass spectrometry)
Format: biochemical
Details: 10 nM recombinant human cGAS, 60 nM 75-bp dsDNA, ATP, GTP, room temperature 3 hours
Outline: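 Product cGAMP was quantified by RapidFire MS against a difluoro-cGAMP internal standard after a formic acid quench. The reaction contained 10 nM recombinant full-length human cGAS, 75-bp dsDNA (60 nM), ATP and GTP (50 μM) and ran for 3 h at room temperature. IC50 values came from 4-parameter nonlinear regression.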

[1] = read-out: IC50 (μM), In vitro inhibition assay for Compounds 1-94
[2] = read-out: IC50 (μM), In vitro inhibition assay for Compounds 95-348

Chain of recombinant human cGAS (Q8N884 whole entry): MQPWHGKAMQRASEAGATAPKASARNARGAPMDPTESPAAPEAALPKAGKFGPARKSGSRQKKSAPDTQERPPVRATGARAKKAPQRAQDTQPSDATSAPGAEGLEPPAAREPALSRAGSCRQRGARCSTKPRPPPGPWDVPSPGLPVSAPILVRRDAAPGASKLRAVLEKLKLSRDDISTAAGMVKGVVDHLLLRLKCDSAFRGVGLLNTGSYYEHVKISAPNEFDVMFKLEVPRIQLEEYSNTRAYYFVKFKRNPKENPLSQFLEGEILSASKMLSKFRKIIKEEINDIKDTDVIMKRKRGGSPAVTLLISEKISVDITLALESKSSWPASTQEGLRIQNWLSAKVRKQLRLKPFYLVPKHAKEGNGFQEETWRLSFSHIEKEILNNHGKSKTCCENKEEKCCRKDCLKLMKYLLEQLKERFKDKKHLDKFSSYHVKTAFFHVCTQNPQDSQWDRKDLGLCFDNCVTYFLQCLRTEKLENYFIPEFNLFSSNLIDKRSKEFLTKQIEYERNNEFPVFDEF

IC50 [1]	IC50 [2]	SMILES
0.0405 µM	–	CCOc1cc(Cl)c(Cl)c2c1c(-c1cn[nH]c1)c1n2CCN(C(=O)CO)C1 [Example 91, 1-[6,7-Dichloro-9-ethoxy-10-(1H-pyrazol-4-yl)-3,4-dihydro-1H-pyrazino[1,2-a]indol-2-yl]-2-hydroxy-ethanone]
0.0287 µM	–	N#CCNc1cc(Cl)c(Cl)c2c1c(-c1cn[nH]c1)c1n2CCN(C(=O)CO)C1 [Example 92, 2-[[6,7-Dichloro-2-(2-hydroxyacetyl)-10-(1H-pyrazol-4-yl)-3,4-dihydro-1H-pyrazino[1,2-a]indol-9-yl]amino]acetonitrile]
0.18 µM	–	N#Cc1c(Cl)ccc2c(-c3cn[nH]c3)c[nH]c12 [Example 93, 6-Chloro-3-(1H-pyrazol-4-yl)-1H-indole-7-carbonitrile]
0.0224 µM	–	Nc1nnc(-c2[nH]c3c(Cl)c(Cl)ccc3c2-c2cn[nH]c2)o1 [Example 94, 5-[6,7-Dichloro-3-(1H-pyrazol-4-yl)-1H-indol-2-yl]-1,3,4-oxadiazol-2-amine]
–	0.0705 µM	O=C1Cn2c(c(-c3cn[nH]c3)c3ccc(Cl)c(Cl)c32)CC(CO)N1 (stereo not drawn) [Example 101, 7,8-Dichloro-2-(hydroxymethyl)-11-(1H-pyrazol-4-yl)-2,3-dihydro-1H-[1,4]diazepino[1,7-a]indol-4(5H)-one]
–	0.0872 µM	O=C(NCc1[nH]c2c(Cl)c(Cl)ccc2c1-c1cn[nH]c1)c1cscn1 [Example 104, N-((6,7-Dichloro-3-(1H-pyrazol-4-yl)-1H-indol-2-yl)methyl)thiazole-4-carboxamide]
–	0.0712 µM	CCS(=O)(=O)NCc1[nH]c2c(Cl)c(Cl)ccc2c1-c1cn[nH]c1 [Example 105, N-((6,7-Dichloro-3-(1H-pyrazol-4-yl)-1H-indol-2-yl)methyl)ethanesulfonamide]
–	0.0561 µM	CC(=O)NCC(=O)NCc1[nH]c2c(Cl)c(Cl)ccc2c1-c1cn[nH]c1 [Example 106, 2-Acetamido-N-((6,7-dichloro-3-(1H-pyrazol-4-yl)-1H-indol-2-yl)methyl)acetamide]
–	0.0621 µM	COCCC(OC)C(=O)N1CCn2c(c(-c3cn[nH]c3)c3ccc(Cl)c(Cl)c32)C1 (stereo not drawn) [Example 108, 1-[6,7-Dichloro-10-(1H-pyrazol-4-yl)-3,4-dihydro-1H-pyrazino[1,2-a]indol-2-yl]-2,4-dimethoxy-butan-1-one]
–	0.0698 µM	CC(=O)N1CCOCC1C(=O)N1CCn2c(c(-c3cn[nH]c3)c3ccc(Cl)c(Cl)c32)C1 (stereo not drawn) [Example 109, 1-(3-(6,7-Dichloro-10-(1H-pyrazol-4-yl)-1,2,3,4-tetrahydropyrazino[1,2-a]indole-2-carbonyl)morpholino)ethan-1-one]
–	0.0561 µM	Cn1ncnc1CCC(=O)N1CCn2c(c(-c3cn[nH]c3)c3ccc(Cl)c(Cl)c32)C1 [Example 110, 1-[6,7-Dichloro-10-(1H-pyrazol-4-yl)-3,4-dihydro-1H-pyrazino[1,2-a]indol-2-yl]-3-(2-methyl-1,2,4-triazol-3-yl)propan-1-one]
–	0.0585 µM	OCC(O)CNc1cc(Cl)c(Cl)c2[nH]cc(-c3cn[nH]c3)c12 (stereo not drawn) [Example 175, 3-[[6,7-Dichloro-3-(1H-pyrazol-4-yl)-1H-indol-4-yl]amino]propane-1,2-diol]
–	0.0864 µM	N#CCC(=O)Nc1cc(Cl)c(Cl)c2[nH]cc(-c3cn[nH]c3)c12 [Example 176, 2-Cyano-N-[6,7-dichloro-3-(1H-pyrazol-4-yl)-1H-indol-4-yl]acetamide]
–	0.0585 µM	CCNC(=O)COCC(=O)N1CCn2c(c(-c3cn[nH]c3)c3ccc(Cl)c(Cl)c32)C1 [Example 179, 2-[2-[6,7-Dichloro-10-(1H-pyrazol-4-yl)-3,4-dihydro-1H-pyrazino[1,2-a]indol-2-yl]-2-oxo-ethoxy]-N-ethyl-acetamide]
–	0.043 µM	CN1CC(=O)N(CC(=O)N2CCn3c(c(-c4cn[nH]c4)c4ccc(Cl)c(Cl)c43)C2)C1=O [Example 311, 3-(2-(6,7-Dichloro-10-(1H-pyrazol-4-yl)-3,4-dihydropyrazino[1,2-a]indol-2(1H)-yl)-2-oxoethyl)-1-methylimidazolidine-2,4-dione]
–	0.0468 µM	COCCN1CC(C(=O)N2CCn3c(c(-c4cn[nH]c4)c4ccc(Cl)c(Cl)c43)C2)CC1=O (stereo not drawn) [Example 312, 4-(6,7-dichloro-10-(1H-pyrazol-4-yl)-1,2,3,4-tetrahydropyrazino[1,2-a]indole-2-carbonyl)-1-(2-methoxyethyl)pyrrolidin-2-one]
–	0.0489 µM	CN1CCN(CC(=O)N2CCn3c(c(-c4cn[nH]c4)c4ccc(Cl)c(Cl)c43)C2)C1=O [Example 313, 1-(2-(6,7-Dichloro-10-(1H-pyrazol-4-yl)-3,4-dihydropyrazino[1,2-a]indol-2(1H)-yl)-2-oxoethyl)-3-methylimidazolidin-2-one]

IC50 [1]	IC50 [2]	SMILES
–	0.0491 µM	O=C1NC(C(=O)N2CCn3c(c(-c4cn[nH]c4)c4ccc(Cl)c(Cl)c43)C2)CCO1 (stereo not drawn) [Example 314, 4-(6,7-Dichloro-10-(1H-pyrazol-4-yl)-1,2,3,4-tetrahydropyrazino[1,2-a]indole-2-carbonyl)-1,3-oxazinan-2-one]
–	0.0503 µM	O=C1COCCN1CC(=O)N1CCn2c(c(-c3cn[nH]c3)c3ccc(Cl)c(Cl)c32)C1 [Example 315, 4-(2-(6,7-Dichloro-10-(1H-pyrazol-4-yl)-3,4-dihydropyrazino[1,2-a]indol-2(1H)-yl)-2-oxoethyl)morpholin-3-one]
–	0.0509 µM	O=C1CCCN1CC(=O)N1CCn2c(c(-c3cn[nH]c3)c3ccc(Cl)c(Cl)c32)C1 [Example 316, 1-(2-(6,7-Dichloro-10-(1H-pyrazol-4-yl)-3,4-dihydropyrazino[1,2-a]indol-2(1H)-yl)-2-oxoethyl)pyrrolidin-2-one]
–	0.0516 µM	COCCOCCC(=O)N1CCn2c(c(-c3cn[nH]c3)c3ccc(Cl)c(Cl)c32)C1 [Example 317, 1-(6,7-Dichloro-10-(1H-pyrazol-4-yl)-3,4-dihydropyrazino[1,2-a]indol-2(1H)-yl)-3-(2-methoxyethoxy)propan-1-one]
–	0.0524 µM	COCC(=O)N(C)CC(=O)N1CCn2c(c(-c3cn[nH]c3)c3ccc(Cl)c(Cl)c32)C1 [Example 318, N-(2-(6,7-Dichloro-10-(1H-pyrazol-4-yl)-3,4-dihydropyrazino[1,2-a]indol-2(1H)-yl)-2-oxoethyl)-2-methoxy-N-methylacetamide]
–	0.0534 µM	CN1CC(C(=O)N2CCn3c(c(-c4cn[nH]c4)c4ccc(Cl)c(Cl)c43)C2)CC1=O (stereo not drawn) [Example 319, 4-(6,7-Dichloro-10-(1H-pyrazol-4-yl)-1,2,3,4-tetrahydropyrazino[1,2-a]indole-2-carbonyl)-1-methylpyrrolidin-2-one]
–	0.055 µM	CCN1C(=O)CCC1C(=O)N1CCn2c(c(-c3cn[nH]c3)c3ccc(Cl)c(Cl)c32)C1 (stereo not drawn) [Example 320, 5-(6,7-Dichloro-10-(1H-pyrazol-4-yl)-1,2,3,4-tetrahydropyrazino[1,2-a]indole-2-carbonyl)-1-ethylpyrrolidin-2-one]
–	0.0562 µM	CC(=O)N1CC(C(=O)N2CCn3c(c(-c4cn[nH]c4)c4ccc(Cl)c(Cl)c43)C2)C1 [Example 321, 1-(3-(6,7-Dichloro-10-(1H-pyrazol-4-yl)-1,2,3,4-tetrahydropyrazino[1,2-a]indole-2-carbonyl)azetidin-1-yl)ethan-1-one]
–	0.06 µM	Cc1noc(COCC(=O)N2CCn3c(c(-c4cn[nH]c4)c4ccc(Cl)c(Cl)c43)C2)n1 [Example 322, 1-(6,7-Dichloro-10-(1H-pyrazol-4-yl)-3,4-dihydropyrazino[1,2-a]indol-2(1H)-yl)-2-((3-methyl-1,2,4-oxadiazol-5-yl)methoxy)ethan-1-one]
–	0.0613 µM	CN1C(=O)SC(CC(=O)N2CCn3c(c(-c4cn[nH]c4)c4ccc(Cl)c(Cl)c43)C2)C1=O (stereo not drawn) [Example 323, 5-(2-(6,7-Dichloro-10-(1H-pyrazol-4-yl)-3,4-dihydropyrazino[1,2-a]indol-2(1H)-yl)-2-oxoethyl)-3-methylthiazolidine-2,4-dione]
–	0.0626 µM	CN1C(=O)CCC1CC(=O)N1CCn2c(c(-c3cn[nH]c3)c3ccc(Cl)c(Cl)c32)C1 (stereo not drawn) [Example 324, 5-(2-(6,7-Dichloro-10-(1H-pyrazol-4-yl)-3,4-dihydropyrazino[1,2-a]indol-2(1H)-yl)-2-oxoethyl)-1-methylpyrrolidin-2-one]
–	0.0626 µM	O=C(CCc1ncc(F)cn1)N1CCn2c(c(-c3cn[nH]c3)c3ccc(Cl)c(Cl)c32)C1 [Example 325, 1-(6,7-Dichloro-10-(1H-pyrazol-4-yl)-3,4-dihydropyrazino[1,2-a]indol-2(1H)-yl)-3-(5-fluoropyrimidin-2-yl)propan-1-one]
–	0.0627 µM	CN1C(=O)CCC1C(=O)N1CCn2c(c(-c3cn[nH]c3)c3ccc(Cl)c(Cl)c32)C1 (stereo not drawn) [Example 326, 5-(6,7-Dichloro-10-(1H-pyrazol-4-yl)-1,2,3,4-tetrahydropyrazino[1,2-a]indole-2-carbonyl)-1-methylpyrrolidin-2-one]
–	0.0635 µM	CN1C(=O)CN(CC(=O)N2CCn3c(c(-c4cn[nH]c4)c4ccc(Cl)c(Cl)c43)C2)C1=O [Example 327, 1-(2-(6,7-Dichloro-10-(1H-pyrazol-4-yl)-3,4-dihydropyrazino[1,2-a]indol-2(1H)-yl)-2-oxoethyl)-3-methylimidazolidine-2,4-dione]
–	0.0636 µM	O=C(CCn1ccnc1)N1CCn2c(c(-c3cn[nH]c3)c3ccc(Cl)c(Cl)c32)C1 [Example 328, 1-(6,7-Dichloro-10-(1H-pyrazol-4-yl)-3,4-dihydropyrazino[1,2-a]indol-2(1H)-yl)-3-(1H-imidazol-1-yl)propan-1-one]
–	0.0682 µM	CCC(=O)NC(C)C(=O)N1CCn2c(c(-c3cn[nH]c3)c3ccc(Cl)c(Cl)c32)C1 (stereo not drawn) [Example 329, N-(1-(6,7-Dichloro-10-(1H-pyrazol-4-yl)-3,4-dihydropyrazino[1,2-a]indol-2(1H)-yl)-1-oxopropan-2-yl)propionamide]
